Data taken from PubChem BioAssay AID1963974 (Molecular Pharmacology Branch, DTP, NCI, 2024).
pIC50: −log10 of the molar value.

Tested on: 648629-189-R-J1-PDC spheroids with HUVEC/MSC, viability
Test: Anticancer human tumor 648629-189-R-J1-PDC patient-derived bladder carcinoma cell line growth inhibition [PI3K]
Settings: for pIC50: curve of first compound; for viability, T/C: stronger effect = lower value
From the text: Combinatorial screen of targeted agents with the PI3K inhibitors inavolisib, alpelisib, duvelisib, and copanlisib in multi-cell type tumor spheroids
A high-throughput screen of multi-cell type tumor spheroids was designed to identify active combinations of targeted small molecules and PI3K pathway inhibitors. Complex spheroids include a stromal component modeled by human endothelial cells (HUVEC) and fibroblasts modeled by human mesenchymal stem cells (MSCs). The concentration ranges selected for each drug and investigational agent were based upon clinically achievable concentrations if the clinical Cmax of the agent was known.
Compounds. The drugs and investigational agents: inavolisib (NSC800729), alpelisib (NSC765974), duvelisib (NSC772469), copanlisib (NSC816437), ipatasertib (NSC767898), afuresertib (NSC778305), talazoparib (NSC767125), sapanisertib (NSC764658), selumetinib (NSC741078), tovorafenib (DAY101, NSC766906), vemurafenib (NSC761431), ravoxertinib (NSC781343), sotorasib (NSC818433), MRTX1133 (NSC 836407), abemaciclib (NSC 768073), palbociclib (NSC758247), venetoclax (NSC 766270), SY5609 (NSC837396), enzalutamide (NSC755605), and darolutamide (NSC825331), were obtained from the National Cancer Institute (NCI) Developmental Therapeutics Program Chemical Repository. The FDA-approved anticancer drug set is available from the NCI Developmental Therapeutics Program. […] The stock solutions were prepared in dimethyl sulfoxide (DMSO, Sigma-Aldrich, St. Louis, MO, cat. D2650) at 800-fold the tested concentration and stored at -70 degrees C prior to their use. All drugs and investigational agents were tested over a range starting from a high concentration at or near the clinical Cmax and decreasing in half-log increments. If the clinical Cmax for an agent had not been determined, the highest concentration tested was 10 microM.
Cell Culture. All cells were maintained in an incubator at 37 degrees C and 5% CO2 with 95% humidity. The PDC lines were cultured according to standard operating procedures established by the NCI PDMR (https://pdmr.cancer.gov/sops/default.htm). All PDCs were thawed and cultured in Matrigel-coated flasks prepared with a working solution of 1X Ham's F-12 nutrient mix, without supplementation (Invitrogen, Waltham, MA, cat. 11765054), 100 U/mL penicillin-streptomycin (Invitrogen, cat. 15140122), and 2.5% Matrigel (Corning Inc., Corning, NY, cat. 354248) for the first three passages. The 354836-022-R-J1-PDC, 475296-252-R-J1-PDC, and 997726-040-R-J2-PDC lines were cultured in 6A media, which includes advanced DMEM/F-12 (Thermo Fisher Scientific, cat. 12634028), 10 mM HEPES (Thermo Fisher Scientific, cat. 15630080), 1X GlutaMAX supplement (Thermo Fisher Scientific, cat. 35050061), 0.1 mg/mL primocin (InvivoGen, San Diego, CA, cat. ant-pm-2), 10% defined fetal bovine serum, heat inactivated (HyClone Laboratories Inc., Logan, UT, cat. SH30070.03HI), 50% L-WRN conditioned media (ATCC, cat. CRL-3276), 1.25 mM N-Acetyl-L-cysteine (Sigma-Aldrich, cat. A9165), 10 mM nicotinamide (Sigma-Aldrich, cat. N0636), 1X B-27 supplement (Thermo Fisher Scientific, cat. 17504044), 1X N-2 supplement (Thermo Fisher Scientific, cat. 17502048), and 10 microM Y-27632 dihydrochloride (Tocris Bioscience, Bristol, United Kingdom, cat. 1254). The 624824-186-R-J2-PDC line was cultured in 6C/Colon 1B media, which includes all 6A media components plus 50 ng/mL human EGF recombinant protein (Thermo Fisher Scientific, cat. PHG0311). […]

[1] = second compound 0.00316 µM, first compound 0.0316 µM
[2] = second compound 0.00316 µM, first compound 0.1 µM
[3] = second compound 0.00316 µM, first compound 0.316 µM
[4] = second compound 0.00316 µM, first compound 1 µM
[5] = second compound 0.00316 µM, first compound 3.16 µM
[6] = second compound 0.00316 µM, first compound 10 µM
[7] = second compound 0.01 µM, first compound 0.0316 µM
[8] = second compound 0.01 µM, first compound 0.1 µM
[9] = second compound 0.01 µM, first compound 0.316 µM
[10] = second compound 0.01 µM, first compound 1 µM
[11] = second compound 0.01 µM, first compound 3.16 µM
[12] = second compound 0.01 µM, first compound 10 µM
[13] = second compound 0.0316 µM, first compound 0.0316 µM
[14] = second compound 0.0316 µM, first compound 0.1 µM
[15] = second compound 0.0316 µM, first compound 0.316 µM
[16] = second compound 0.0316 µM, first compound 1 µM
[17] = second compound 0.0316 µM, first compound 3.16 µM
[18] = second compound 0.0316 µM, first compound 10 µM
[19] = second compound 0.1 µM, first compound 0.0316 µM
[20] = second compound 0.1 µM, first compound 0.1 µM
[21] = second compound 0.1 µM, first compound 0.316 µM
[22] = second compound 0.1 µM, first compound 1 µM
[23] = second compound 0.1 µM, first compound 3.16 µM
[24] = second compound 0.1 µM, first compound 10 µM
[25] = second compound 0.316 µM, first compound 0.0316 µM
[26] = second compound 0.316 µM, first compound 0.1 µM
[27] = second compound 0.316 µM, first compound 0.316 µM
[28] = second compound 0.316 µM, first compound 1 µM
[29] = second compound 0.316 µM, first compound 3.16 µM
[30] = second compound 0.316 µM, first compound 10 µM
[31] = second compound 1 µM, first compound 0.0316 µM
[32] = second compound 1 µM, first compound 0.1 µM
[33] = second compound 1 µM, first compound 0.316 µM
[34] = second compound 1 µM, first compound 1 µM
[35] = second compound 1 µM, first compound 3.16 µM
[36] = second compound 1 µM, first compound 10 µM
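Also: spheroids exposed to agents for seven days before reading.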
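For viability, T/C in this document: percent of vehicle control luminescence where 100% = DMSO treated spheroids.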

CC(C)NCC(C(=O)N1CCN(c2ncnc3c2C(C)CC3O)CC1)c1ccc(Cl)cc1 (stereo unspecified) + CC(Nc1ccc2c(c1)OCCn1cc(N3C(=O)OCC3C(F)F)nc1-2)C(N)=O
pIC50 (second compound 0.00316 µM): 5.89 | pIC50 (second compound 0.01 µM): 6.00 | pIC50 (second compound 0.0316 µM): 6.06 | pIC50 (second compound 0.1 µM): 5.94 | pIC50 (second compound 0.316 µM): 6.19 | pIC50 (second compound 1 µM): 6.36 | viability, T/C [1]: 110% | viability, T/C [2]: 97.4% | viability, T/C [3]: 91.8% | viability, T/C [4]: 54.9% | viability, T/C [5]: 27.3% | viability, T/C [6]: 13.5% | viability, T/C [7]: 95.5% | viability, T/C [8]: 105% | viability, T/C [9]: 81% | viability, T/C [10]: 50.2% | viability, T/C [11]: 26.8% | viability, T/C [12]: 16.2% | viability, T/C [13]: 90.1% | viability, T/C [14]: 99.3% | viability, T/C [15]: 77.7% | viability, T/C [16]: 44.5% | viability, T/C [17]: 27.1% | viability, T/C [18]: 14% | viability, T/C [19]: 82.7% | viability, T/C [20]: 80.7% | viability, T/C [21]: 78.2% | viability, T/C [22]: 52.4% | viability, T/C [23]: 25.3% | viability, T/C [24]: 13.6% | viability, T/C [25]: 83.1% | viability, T/C [26]: 75.6% | viability, T/C [27]: 63.8% | viability, T/C [28]: 41.3% | viability, T/C [29]: 24.6% | viability, T/C [30]: 14.2% | viability, T/C [31]: 65.2% | viability, T/C [32]: 67.8% | viability, T/C [33]: 56.6% | viability, T/C [34]: 32.2% | viability, T/C [35]: 19% | viability, T/C [36]: 12.6%

CCN1CCN(Cc2ccc(Nc3ncc(F)c(-c4cc(F)c5nc(C)n(C(C)C)c5c4)n3)nc2)CC1 + CC(Nc1ccc2c(c1)OCCn1cc(N3C(=O)OCC3C(F)F)nc1-2)C(N)=O
pIC50 (second compound 0.00316 µM): < 6.00 | pIC50 (second compound 0.01 µM): < 6.00 | pIC50 (second compound 0.0316 µM): < 6.00 | pIC50 (second compound 0.1 µM): < 6.00 | pIC50 (second compound 0.316 µM): < 6.00 | pIC50 (second compound 1 µM): < 6.00 | viability, T/C (second compound 0.00316 µM, first compound 0.00316 µM): 105% | viability, T/C (second compound 0.00316 µM, first compound 0.01 µM): 98.8% | viability, T/C [1]: 105% | viability, T/C [2]: 113% | viability, T/C [3]: 118% | viability, T/C [4]: 119% | viability, T/C (second compound 0.01 µM, first compound 0.00316 µM): 95.5% | viability, T/C (second compound 0.01 µM, first compound 0.01 µM): 102% | viability, T/C [7]: 110% | viability, T/C [8]: 110% | viability, T/C [9]: 113% | viability, T/C [10]: 107% | viability, T/C (second compound 0.0316 µM, first compound 0.00316 µM): 105% | viability, T/C (second compound 0.0316 µM, first compound 0.01 µM): 99.2% | viability, T/C [13]: 112% | viability, T/C [14]: 95.8% | viability, T/C [15]: 121% | viability, T/C [16]: 124% | viability, T/C (second compound 0.1 µM, first compound 0.00316 µM): 96.4% | viability, T/C (second compound 0.1 µM, first compound 0.01 µM): 104% | viability, T/C [19]: 102% | viability, T/C [20]: 105% | viability, T/C [21]: 109% | viability, T/C [22]: 103% | viability, T/C (second compound 0.316 µM, first compound 0.00316 µM): 85.5% | viability, T/C (second compound 0.316 µM, first compound 0.01 µM): 82.6% | viability, T/C [25]: 99.9% | viability, T/C [26]: 98.6% | viability, T/C [27]: 90.7% | viability, T/C [28]: 96.9% | viability, T/C (second compound 1 µM, first compound 0.00316 µM): 70.8% | viability, T/C (second compound 1 µM, first compound 0.01 µM): 72.4% | viability, T/C [31]: 64.3% | viability, T/C [32]: 73.1% | viability, T/C [33]: 87.8% | viability, T/C [34]: 77.8%

Cn1ncc(Cl)c1-c1cc(C(=O)NC(CN)Cc2cccc(F)c2)sc1Cl (stereo unspecified) + CC(Nc1ccc2c(c1)OCCn1cc(N3C(=O)OCC3C(F)F)nc1-2)C(N)=O
pIC50 (second compound 0.00316 µM): < 5.00 | pIC50 (second compound 0.01 µM): 6.12 | pIC50 (second compound 0.0316 µM): < 5.00 | pIC50 (second compound 0.1 µM): 6.57 | pIC50 (second compound 0.316 µM): 6.68 | pIC50 (second compound 1 µM): 6.79 | viability, T/C [1]: 97% | viability, T/C [2]: 87.4% | viability, T/C [3]: 50.5% | viability, T/C [4]: 30.1% | viability, T/C [5]: 20.2% | viability, T/C [6]: 102% | viability, T/C [7]: 88.8% | viability, T/C [8]: 91% | viability, T/C [9]: 56.1% | viability, T/C [10]: 32.6% | viability, T/C [11]: 17.5% | viability, T/C [12]: 94.3% | viability, T/C [13]: 98% | viability, T/C [14]: 80.4% | viability, T/C [15]: 55.1% | viability, T/C [16]: 30.8% | viability, T/C [17]: 19.4% | viability, T/C [18]: 99.7% | viability, T/C [19]: 85.3% | viability, T/C [20]: 72.9% | viability, T/C [21]: 47.4% | viability, T/C [22]: 27.5% | viability, T/C [23]: 14.8% | viability, T/C [24]: 89% | viability, T/C [25]: 79.9% | viability, T/C [26]: 61.5% | viability, T/C [27]: 47.5% | viability, T/C [28]: 24% | viability, T/C [29]: 15.7% | viability, T/C [30]: 72.2% | viability, T/C [31]: 56.2% | viability, T/C [32]: 62.1% | viability, T/C [33]: 37.3% | viability, T/C [34]: 22.6% | viability, T/C [35]: 13.2% | viability, T/C [36]: 67%
